Assay results published in ChEMBL document CHEMBL4483862, “Open-source discovery of chemical leads for next-generation chemoprotective antimalarials” (2018).

System: Plasmodium berghei
Assay: Luciferase/luciferin-expressing antifolate-resistant parasites were used to infect a culture of HepG2 cells that were pre-incubated with compounds. Infected hepatocytes emit light due to the luciferase reaction. Assay results are presented as the percent inhibition of light emission compared to control. […]
Type: functional
Conditions: sporozoite; for IC50: read-out: LUCIFERASE INFECTION ASSAY - IC50; for IC90: read-out: LUCIFERASE INFECTION ASSAY - IC90

Structure (SMILES) | IC50 [µM] | IC90 [µM]
N#CC(C#N)=NNc1ccc(-n2ccc(C(F)(F)F)n2)cc1 | 4.97 | > 10.8
Cc1ccc(-c2oc3ccccc3c(=O)c2O)cc1 | > 13.1 | > 13.1
CC(C)S(=O)(=O)c1cnc(N2CCCCC2)nc1N | > 11.6 | > 11.6
COC(=O)c1cc(OC)c(OC)cc1NS(=O)(=O)c1ccc(OC)cc1 | 3.35 | > 8.65
O=C(N/N=C/c1c2ccccc2cc2ccccc12)c1ccc(Br)cc1 | > 8.18 | > 8.18
Cc1csc(NC(=O)Nc2ccc(C(F)(F)F)cc2)c1 | > 11 | > 11
O=C(CSc1ccccc1[N+](=O)[O-])NNC(=S)NC1CC2C=CC1C2 (stereo not given) | > 8.72 | > 8.72
N=C(NOC(=O)c1cnn(-c2ccccc2)c1C(F)(F)F)c1ccc(Cl)cc1 | 1.06 | > 8.07
CC(C)(C)S(=O)(=O)/C(C#N)=C/Nc1ccc(OC(F)(F)F)cc1 | > 9.47 | > 9.47
COc1ccc(Sc2sc(C(C)=O)cc2[N+](=O)[O-])cc1 | > 10.7 | > 10.7
CSc1sc(-c2ccn(S(=O)(=O)c3ccc(Cl)c(Cl)c3)n2)c2c1C(=O)CC(C)(C)C2 | > 6.58 | > 6.58
COC(=O)c1sccc1Oc1ccc(C(F)(F)F)cc1NC(=S)Nc1cc(Cl)cc(Cl)c1 | > 6.33 | > 6.33
COC(=O)c1scc(S(=O)(=O)Cc2ccco2)c1NN=C(C#N)C#N | > 8.72 | > 8.72
Cc1csc(-c2nc(-c3ccc(C(C)(C)C)cc3)no2)c1 | > 11.1 | > 11.1
Cc1c(C)c(C)c(CSC2=NCCCN2C2CCCCC2)c(C)c1C | > 8.35 | > 8.35
CCC(=O)/C(=N/Nc1ccccc1)C(=O)OC | > 14.1 | > 14.1
Cc1ccc(N/C=C(\C#N)S(=O)(=O)c2ccc(Cl)cc2)cc1 | > 9.92 | > 9.92
CSC(SC)=C(C#N)S(=O)(=O)C(C)C | > 13.1 | > 13.1
CCO/C=N\C1=C(C#N)C(c2ccc(F)cc2)c2ccc3ccccc3c2O1 (stereo not given) | > 8.86 | > 8.86
CSc1c(C#N)c(-c2ccc(Cl)cc2)nn1C(=O)c1ccccc1Cl | > 8.5 | > 8.5
COC(=O)c1scc(S(=O)(=O)c2ccc(Cl)cc2)c1C | > 9.98 | > 9.98
Clc1ccc(Sc2ncnc3sccc23)cc1 | > 11.8 | > 11.8

Structure (SMILES) | IC50 [µM] | IC90 [µM]
COC(=O)c1cc(OC)c(OC)cc1NC(=O)c1ccccc1Br | > 8.37 | > 8.37
CC(C)(C)CN=C(C#N)C(C#N)/N=C/c1cccc(Cl)c1 (stereo not given) | > 11 | > 11
OC(C#CC(O)(c1ccccc1)c1ccccc1)(c1ccccc1)c1ccccc1 | > 8.45 | > 8.45
O=[N+]([O-])c1cccc(-c2csc(CS(=O)(=O)c3cccs3)n2)c1 | > 9.01 | > 9.01
CCOC(=O)c1sc2sc(C(C)=O)c(C)c2c1C | > 11.7 | > 11.7
CC1(C)CN=C(N(C(=O)Nc2ccc(Cl)c(Cl)c2)c2ccccc2)S1 | > 8.37 | > 8.37
O=C(Nc1cc(C(F)(F)F)cc(C(F)(F)F)c1)c1cnn(-c2ccccc2)c1C(F)(F)F | > 7.06 | > 7.06
CC1(C)CC(=O)C=C(Sc2nc3cc(Cl)ccc3s2)C1 | > 10.2 | > 10.2
C=C(C)c1ccccc(=O)c1O | > 20.3 | > 20.3
CN(C)c1ccc(/C=N/NC(=O)c2ccccc2N)c(Cl)c1 | > 10.4 | > 10.4
Cc1c(OCc2ccc([N+](=O)[O-])cc2)ccc2c1OC(C)(C)C=C2 | 0.667 | 6.1
COC(=O)c1cc(OC)c(OC)cc1NS(=O)(=O)c1ccc(Cl)cc1 | 2.84 | 2.91
CSc1nc(N/C=C2/C(=O)c3ccccc3N(C)S2(=O)=O)nc(N(C)C)n1 | > 8.12 | > 8.12
O=c1cc(-c2ccccc2)[nH]c2cc(-c3cccs3)nn12 | 8.64 | > 11.2
CSc1nc(=NC(=O)NS(=O)(=O)Oc2ccc(Cl)cc2Cl)n2nc(C3CC3)cc2[nH]1 | > 6.74 | > 6.74
Cc1ccc(NC(=S)NCc2ccccn2)cc1C | > 12.2 | > 12.2
CSc1sc(C(=O)Nc2cc(C(F)(F)F)cc(C(F)(F)F)c2)c(-c2ccc(Cl)cc2)c1C#N | 0.839 | 2.43
CC(C)c1ccc(/C=N/NC(=O)CC#N)cc1 | > 14.4 | > 14.4
Fc1ccc(Nc2n[nH]c(=S)s2)cc1 | > 14.5 | > 14.5
CNC(=O)c1ccc(-c2cc(C(F)(F)F)n(C)n2)s1 | > 11.4 | > 11.4
O=C(c1ccc(Sc2ccccc2)c([N+](=O)[O-])c1)N(Cc1ccc2c(c1)OCO2)c1ccc(F)cc1 | > 6.57 | > 6.57
CCCc1c(C(=O)ONC(=N)c2ccc(C(C)(C)C)cc2)cnn1-c1ccccc1 | > 8.16 | > 8.16

Structure (SMILES) | IC50 [µM] | IC90 [µM]
COc1ccc(S(=O)(=O)Nc2ccccc2Sc2ncnc3scc(C)c23)cc1 | > 7.44 | > 7.44
CCOC(=O)c1sc(SCc2ccccc2)c(S(=O)(=O)C(C)C)c1N | > 8.26 | > 8.26
O=C(Nc1ccc(F)cc1)Nc1cnn(-c2ccc([N+](=O)[O-])cc2)c1C(F)(F)F | 2.92 | > 8.06
Cc1nn(C)c2ncc(C(=O)Nc3ccc(F)c(Cl)c3)c(SC(C)C)c12 | > 8.4 | > 8.4
N#C/C(=N\Nc1ccc(OC(F)(F)F)cc1)S(=O)(=O)c1ccccn1 | > 8.91 | > 8.91
COc1ccc(C(OC[C@H]2O[C@@H](n3cnc4c(N)ncnc43)CC2O)(c2ccccc2)c2ccc(OC)cc2)cc1 (stereo not given in full) | > 5.96 | > 5.96
O=C(O)C1CSC(c2ccccc2)N1 (stereo not given) | > 15.8 | > 15.8
COc1ccc(C2c3ccc4ccccc4c3OC(=N)C2C#N)cc1 (stereo not given) | > 10 | > 10
Cc1cc(C)c(CSC2=NCCCN2C2CCCCC2)c(C)c1 | > 8.99 | > 8.99
COC(=O)c1sccc1Oc1ccc(C(F)(F)F)cc1NC(=O)Nc1c(Cl)cc(Cl)cc1Cl | > 6.11 | > 6.11
COC(=O)c1cccc(NC(=S)NC(=O)c2ccc(C(C)(C)C)cc2)c1 | > 8.91 | > 8.91
Cc1csc2sc(C(=O)N3CCOCC3)c(C)c12 | > 11.7 | > 11.7
N#CC1C(=N)Oc2c(ccc3ccccc23)C1c1ccc(Cl)cc1 (stereo not given) | > 9.92 | > 9.92
CNC(=O)c1sc2scc(C)c2c1C | > 14.6 | > 14.6
COC(=O)c1scc(S(=O)(=O)Cc2ccco2)c1N/N=C(\C#N)S(=O)(=O)C(C)C | > 7.18 | > 7.18
CC(C)CC(NC(=O)Cc1ccsc1)C(=O)N/N=C/c1cccs1 (stereo not given) | > 9.08 | > 9.08
COc1cc(C(O)c2cc(C(F)(F)F)cc(C(F)(F)F)c2)cc(OC)c1OC (stereo not given) | 7.33 | > 8.04
Cc1c(OCc2ccc(Br)cc2)ccc2c1OC(C)(C)C=C2 | 0.199 | 0.652
N#C/C(=C\Nc1cccc([N+](=O)[O-])c1)S(=O)(=O)c1ccc(Cl)cc1 | > 9.07 | > 9.07
O=C1/C(=C/c2ccccc2Cl)CCC/C1=C\c1ccccc1Cl | > 9.61 | > 9.61
CN1C/C(=C\c2ccccc2)C(=O)/C(=C/c2ccccc2)C1 | > 11.4 | > 11.4
